From ChEMBL document CHEMBL3881525, “Analogs of dehydrophenylahistins and their therapeutic use” (2007)
≈ marks a conversion by molar mass, not a printed value. Calls of active or inactive are those of the source. No cut-off for these calls is given here.

Tests used:
[1] = Antitumor activity against human HT-29 cells xenografted in nude mouse assessed as tumor growth inhibition at 100 mg/kg, ip administered thrice weekly relative to control; format: functional; conditions: HT-29, ip, read-out: TGI
[2] = Cytotoxicity against human HT-29 cells assessed as reduction in cell viability measured after 48 hrs by resazurin dye-based fluorometric analysis; format: functional; conditions: Homo sapiens, HT-29, 48 h
[3] = test system: Candida albicans; assay: Antifungal activity against Candida albicans ATCC 10231 measured after 48 hrs by broth dilution method; format: functional; conditions: ATCC 10231, 48 h
[4] = Cytotoxicity against human PC3 cells assessed as reduction in cell viability measured after 48 hrs by resazurin dye-based fluorometric analysis relative to control; format: functional, PC-3; design: concentration or dose not given beside the values
[5] = test system: Aspergillus fumigatus; assay: Fungicidal activity against Aspergillus fumigatus isolate 2 measured after 48 hrs by broth dilution method; format: functional; conditions: isolate 2, 48 h
[6] = Antifungal activity against Candida glabrata measured after 48 hrs by broth dilution method; format: functional; conditions: Nakaseomyces glabratus
[7] = test system: Aspergillus fumigatus; assay: Antifungal activity against Aspergillus fumigatus isolate 1 measured after 48 hrs by broth dilution method; format: functional; conditions: isolate 1, 48 h
[8] = Cytotoxicity against human HT-29 cells assessed as reduction in cell viability measured after 48 hrs by resazurin dye-based fluorometric analysis relative to control; format: functional
[9] = test system: Candida albicans; assay: Antifungal activity against Candida albicans 90028 measured after 48 hrs by broth dilution method; format: functional; conditions: Candida albicans, 90028, 48 h
[10] = test system: Aspergillus fumigatus; assay: Antifungal activity against Aspergillus fumigatus isolate 2 measured after 48 hrs by broth dilution method; format: functional; conditions: isolate 2, 48 h
[11] = Cytotoxicity against mouse P388 cells assessed as reduction in cell viability measured after 48 hrs by resazurin dye-based fluorometric analysis; format: functional; conditions: P388, 48 h
[12] = Antifungal activity against Trichophyton mentagrophytes isolate 1 measured after 48 hrs by broth dilution method; format: functional
[13] = test system: Trichophyton mentagrophytes; assay: Fungicidal activity against Trichophyton mentagrophytes isolate 1 measured after 48 hrs by broth dilution method; format: functional; conditions: isolate 1, 48 h
[14] = test system: Trichophyton rubrum; assay: Fungicidal activity against Trichophyton rubrum isolate 1 measured after 48 hrs by broth dilution method; format: functional; conditions: isolate 1, 48 h
[15] = Antifungal activity against Trichophyton mentagrophytes isolate 2 measured after 48 hrs by broth dilution method; format: functional
[16] = Antifungal activity against Epidermophyton floccosum isolate 1 measured after 48 hrs by broth dilution method; format: functional
[17] = test system: Trichophyton rubrum; assay: Fungicidal activity against Trichophyton rubrum isolate 2 measured after 48 hrs by broth dilution method; format: functional; conditions: isolate 2, 48 h
[18] = Antifungal activity against Trichophyton rubrum isolate 2 measured after 48 hrs by broth dilution method; format: functional
[19] = Antifungal activity against Trichophyton rubrum isolate 1 measured after 48 hrs by broth dilution method; format: functional
[20] = Antifungal activity against Epidermophyton floccosum isolate 2 measured after 48 hrs by broth dilution method; format: functional
[21] = test system: HeLa; assay: Effect on cell cycle progression in human HeLa cells assessed as increase in 4N cells at 40 nM; format: functional, cell-based
[22] = target: Tubulin (Candida albicans) (UniProt P87066+P10875+O93807); assay: Inhibition of microtubule formation in Candida albicans; format: protein-complex assay
Chain of Tubulin (Candida albicans) (O93807 whole entry, looked up): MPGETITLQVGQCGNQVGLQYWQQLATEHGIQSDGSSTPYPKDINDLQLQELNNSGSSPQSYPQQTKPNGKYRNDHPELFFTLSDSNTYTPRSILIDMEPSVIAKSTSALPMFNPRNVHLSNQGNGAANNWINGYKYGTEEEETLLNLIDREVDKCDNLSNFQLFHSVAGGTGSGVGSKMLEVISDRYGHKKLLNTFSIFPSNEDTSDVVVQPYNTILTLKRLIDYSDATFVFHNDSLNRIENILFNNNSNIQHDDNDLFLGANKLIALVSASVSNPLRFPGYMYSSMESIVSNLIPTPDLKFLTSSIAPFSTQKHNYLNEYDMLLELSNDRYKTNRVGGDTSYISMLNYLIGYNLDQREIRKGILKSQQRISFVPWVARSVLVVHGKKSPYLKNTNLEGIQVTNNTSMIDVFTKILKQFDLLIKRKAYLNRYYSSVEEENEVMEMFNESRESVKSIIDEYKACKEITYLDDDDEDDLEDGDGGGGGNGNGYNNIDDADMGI
Chain of Tubulin (Candida albicans) (P10875 whole entry, looked up): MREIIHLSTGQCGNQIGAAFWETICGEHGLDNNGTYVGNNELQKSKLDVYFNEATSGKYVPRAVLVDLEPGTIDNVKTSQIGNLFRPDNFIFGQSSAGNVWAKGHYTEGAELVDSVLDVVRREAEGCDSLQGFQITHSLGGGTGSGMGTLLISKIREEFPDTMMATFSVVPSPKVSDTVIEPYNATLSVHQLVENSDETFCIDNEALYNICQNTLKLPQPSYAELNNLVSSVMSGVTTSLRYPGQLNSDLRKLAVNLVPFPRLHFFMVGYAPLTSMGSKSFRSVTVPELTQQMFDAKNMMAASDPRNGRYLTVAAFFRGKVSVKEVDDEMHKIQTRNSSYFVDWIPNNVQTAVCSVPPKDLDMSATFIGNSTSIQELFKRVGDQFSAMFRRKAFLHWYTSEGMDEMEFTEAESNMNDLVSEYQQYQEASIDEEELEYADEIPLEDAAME
Chain of Tubulin (Candida albicans) (P87066 whole entry, looked up): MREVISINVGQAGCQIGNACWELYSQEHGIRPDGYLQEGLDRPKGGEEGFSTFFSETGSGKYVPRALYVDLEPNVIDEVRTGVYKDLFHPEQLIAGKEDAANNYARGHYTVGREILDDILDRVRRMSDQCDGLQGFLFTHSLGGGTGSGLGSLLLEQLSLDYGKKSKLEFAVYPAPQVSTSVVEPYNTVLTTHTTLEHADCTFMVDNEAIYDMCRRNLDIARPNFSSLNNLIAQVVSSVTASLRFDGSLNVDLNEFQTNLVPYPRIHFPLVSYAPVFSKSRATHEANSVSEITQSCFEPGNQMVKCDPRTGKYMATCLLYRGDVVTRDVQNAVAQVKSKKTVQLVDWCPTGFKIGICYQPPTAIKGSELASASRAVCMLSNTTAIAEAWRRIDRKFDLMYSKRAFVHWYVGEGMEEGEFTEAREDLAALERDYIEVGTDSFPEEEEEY

[23] = test system: HeLa; assay: Effect on cell cycle progression in human HeLa cells assessed as reduction in 2N cells at 40 nM; format: functional, cell-based
[24] = Antiproliferative activity against taxol-sensitive human MES-SA cells pretreated with p-gp inhibitor cyclosporinA followed by compound addition; format: functional, cell-based
[25] = Antiproliferative activity against taxol-resistant human MES-SA/Dx5 cells expressing MDR1 mRNA and P-gp pretreated with p-gp inhibitor cyclosporinA followed by compound addition; format: functional, cell-based
[26] = Antiproliferative activity against taxol-sensitive human MES-SA cells […]; format: functional, cell-based
[27] = Antiproliferative activity against taxol-resistant human MES-SA/Dx5 cells expressing MDR1 mRNA and P-gp; format: functional, cell-based
[28] = test system: Jurkat; assay: Induction of apoptosis in human Jurkat cells assessed as PARP cleavage at 100 nM measured after 10 hrs by Western blotting; format: functional, cell-based
[29] = Cytotoxicity against human PC3 cells assessed as reduction in cell viability measured after 48 hrs by resazurin dye-based fluorometric analysis; format: functional; conditions: PC-3, 48 h
[30] = test system: Jurkat; assay: Induction of apoptosis in human Jurkat cells assessed as DNA laddering at 1 nM by gel electrophoresis; format: functional, cell-based
[31] = test system: MCF7; assay: Antimitotic activity in human MCF7 cells assessed as mitotic index measured after 20 hrs by DAPI-staining based fluorescence microscopic analysis; format: functional, cell-based
[32] = target: T1, Tubulin (Homo sapiens) (UniProt P68371+Q9H4B7+P0DPH7+P68366+Q13509+Q71U36+P04350+Q3ZCM7+P07437+P68363+Q9BQE3+Q6PEY2+Q13885+Q9BVA1+Q9BUF5); assay: Induction of microtubule instability in human MCF7 cells assessed as rescue frequency at IC25 for mitotic block measured after 20 hrs by immunofluorescence analysis; format: cell-based
[33] = target: T1, Tubulin (Homo sapiens); assay: Induction of microtubule instability in human MCF7 cells assessed as rescue frequency at IC50 for mitotic block measured after 20 hrs by immunofluorescence analysis; format: cell-based
[34] = test system: MCF7; assay: Antimitotic activity in human MCF7 cells assessed as microtubule polymer at twice mitotic block IC50 measured after 20 hrs by immunofluorescence analysis relative to control; format: functional, cell-based
[35] = test system: MCF7; assay: Antimitotic activity in human MCF7 cells assessed as bipolar cells with uncompressed chromosomes at mitotic block IC50 measured after 20 hrs by immunofluorescence analysis relative to control; format: functional
[36] = target: T1, Tubulin (Homo sapiens); assay: Induction of microtubule instability in human MCF7 cells assessed as time spent for shortening at IC50 for mitotic block measured after 20 hrs by immunofluorescence analysis; format: cell-based
[37] = target: T1, Tubulin (Homo sapiens); assay: Induction of microtubule instability in human MCF7 cells assessed as catastrophy frequency at IC25 for mitotic block measured after 20 hrs by immunofluorescence analysis; format: cell-based
[38] = target: T1, Tubulin (Homo sapiens); assay: Induction of microtubule instability in human MCF7 cells assessed as time spent for growth at IC50 for mitotic block measured after 20 hrs by immunofluorescence analysis; format: cell-based
[39] = test system: MCF7; assay: Antimitotic activity in human MCF7 cells assessed as decrease in microtubule polymer formation measured after 20 hrs by immunofluorescence analysis relative to control; format: functional, cell-based
[40] = target: T1, Tubulin (Homo sapiens); assay: Induction of microtubule instability in human MCF7 cells assessed as time spent for attenuation at IC25 for mitotic block measured after 20 hrs by immunofluorescence analysis; format: cell-based
[41] = target: T1, Tubulin (Homo sapiens); assay: Induction of microtubule instability in human MCF7 cells assessed as catastrophy frequency at IC50 for mitotic block measured after 20 hrs by immunofluorescence analysis; format: cell-based
[42] = target: T1, Tubulin (Homo sapiens); assay: Induction of microtubule instability in human MCF7 cells assessed as time spent for growth at IC25 for mitotic block measured after 20 hrs by immunofluorescence analysis; format: cell-based
[43] = target: T1, Tubulin (Homo sapiens); assay: Induction of microtubule instability in human MCF7 cells assessed as time spent for attenuation at IC50 for mitotic block measured after 20 hrs by immunofluorescence analysis; format: cell-based
[44] = target: T1, Tubulin (Homo sapiens); assay: Time required for induction of microtubule dynamic instability in human MCF7 cells at IC50 for mitotic block measured after 20 hrs by immunofluorescence analysis; format: cell-based
[45] = target: T1, Tubulin (Homo sapiens); assay: Time required for induction of microtubule dynamic instability in human MCF7 cells at IC25 for mitotic block measured after 20 hrs by immunofluorescence analysis; format: cell-based
[46] = target: Tubulin (Bos taurus) (UniProt Q6B856+Q862L2+Q862F3); conditions: 10 uM
Description: Inhibition of [3H]CLC binding to bovine brain tubulin at 10 uM measured after 120 mins in presence of GTP by scintillation counting method

[47] = target: T1, Tubulin (Homo sapiens); assay: Induction of microtubule instability in human MCF7 cells assessed as time spent for shortening at IC25 for mitotic block measured after 20 hrs by immunofluorescence analysis; format: cell-based
[48] = test system: Nakaseomyces glabratus; assay: Fungicidal activity against Candida glabrata measured after 48 hrs by broth dilution method; format: functional
[49] = target: Tubulin alpha (Homo sapiens) (UniProt P0DPH7+P68366+Q71U36+P68363+Q9BQE3+Q6PEY2+A6NHL2+Q9NY65); assay: Induction of alpha-tubulin depolymerization in HUVEC at 200 nM measured after 30 mins by DAPI staining based indirect immunofluorescence analysis; format: cell-based

CCc1c2c(nc3ccc(OC(=O)N4CCC(N5CCCCC5)CC4)cc13)-c1cc3c(c(=O)n1C2)COC(=O)[C@]3(O)CC [IRINOTECAN]
inhibition in vivo at 100 mg/kg [1]: 32.7 to 39%

COc1ccc(/C=c2\[nH]c(=O)/c(=C/c3nc[nH]c3C(C)(C)C)[nH]c2=O)c(OC)c1OC
EC50 [2]: 4060 to 4800 nM | MIC [3]: > 32 µg/mL | Activity [4]: 94% | MFC [5]: > 16 µg/mL | MIC [6]: > 32 µg/mL | MIC [7]: > 16 µg/mL | inhibition (INH) [8]: 78% | MIC [9]: > 32 µg/mL | MIC [10]: 0.06 µg/mL (≈ 0.141 µM)

NS(=O)(=O)c1ccc(S(=O)(=O)Nc2cccc3c(Cl)c[nH]c23)cc1
IC50 [11]: 0.15 µg/mL (≈ 0.389 µM)

CC(C)(C)c1[nH]cnc1/C=C1\NC(=O)[C@H](Cc2ccccc2)NC1=O
MIC [12]: 4 µg/mL (≈ 11.8 µM) | MFC [13]: > 16 µg/mL | MFC [14]: 0.125 µg/mL (≈ 0.369 µM) | MIC [15]: > 16 µg/mL | MIC [16]: > 16 µg/mL | MFC [17]: < 0.03 µg/mL | MIC [18]: < 0.03 µg/mL | MIC [19]: < 0.03 µg/mL | MIC [20]: > 16 µg/mL

COc1cc(/C=c2\[nH]c(=O)/c(=C/c3nc[nH]c3C(C)(C)C)[nH]c2=O)cc(OC)c1OC
MIC [12]: 1 µg/mL (≈ 2.34 µM) | MFC [13]: > 16 µg/mL | EC50 [2]: 819 to 2000 nM | MIC [3]: > 32 µg/mL | MFC [14]: > 16 µg/mL | MIC [15]: > 16 µg/mL | MIC [16]: > 16 µg/mL | MFC [17]: < 0.03 µg/mL | MIC [18]: < 0.03 µg/mL | MFC [5]: > 16 µg/mL | MIC [6]: > 32 µg/mL | MIC [7]: > 16 µg/mL | MIC [19]: 0.06 µg/mL (≈ 0.141 µM) | MIC [9]: > 32 µg/mL | MIC [10]: 0.06 µg/mL (≈ 0.141 µM) | MIC [20]: > 16 µg/mL

COC(=O)Nc1nc2cc(C(=O)c3cccs3)ccc2[nH]1
Activity [21]: Active | inhibition [22]: Active | Activity [23]: Active

C=CC(C)(C)c1[nH]cnc1/C=c1\[nH]c(=O)/c(=C/c2ccccc2)[nH]c1=O
MIC [12]: 4 µg/mL (≈ 11.5 µM) | MFC [13]: > 16 µg/mL | EC50 [2]: 42.6 to 48 nM | MIC [15]: > 16 µg/mL | MIC [16]: > 16 µg/mL | MFC [17]: > 16 µg/mL | MIC [18]: 0.25 µg/mL (≈ 0.718 µM) | EC50 [24]: 114 nM | EC50 [25]: 88 nM | EC50 [26]: 116 nM | MIC [6]: > 68 µg/mL | MIC [7]: > 16 µg/mL | MIC [19]: > 16 µg/mL | inhibition (INH) [8]: 86% | EC50 [27]: 98 nM | Activity [28]: Active | MIC [10]: > 16 µg/mL | EC50 [29]: 4.7 to 5.4 nM | MIC [20]: > 16 µg/mL | Activity [30]: Active

CC(C)OC(=O)Nc1cccc(Cl)c1
inhibition [22]: Active

COc1ccc(/C=C\c2cc(OC)c(OC)c(OC)c2)cc1O
inhibition [31]: Dose-dependent effect | Activity [32]: 1.9 min⁻¹ | Activity [33]: 2.79 min⁻¹ | Activity [34]: Active | Activity [35]: Active | TIME [36]: 0.00367 h | Activity [37]: 1.52 min⁻¹ | TIME [38]: 0.0055 h | Activity [39]: Dose-dependent effect | TIME [40]: 0.0075 h | Activity [41]: 1.09 min⁻¹ | TIME [42]: 0.0045 h | TIME [43]: 0.00917 h | TIME [44]: 0.653 h | TIME [45]: 0.66 h | inhibition [46]: Active | TIME [47]: 0.0035 h

CCCCNC(=O)n1c(NC(=O)OC)nc2ccccc21 [BENOMYL]
MFC [48]: > 512 µg/mL

CC(C)(C)c1[nH]cnc1/C=c1\[nH]c(=O)/c(=C/c2cccc(F)c2)[nH]c1=O
Activity [49]: Active
